The record followed here is PubChem BioAssay (NCI).

Molecules are shown by their SMILES.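 48-hour exposure; five concentrations; linearly interpolated endpoints. GI50 is the concentration that inhibits growth by half. TGI: concentration producing complete growth inhibition.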

Among the test systems are OVCAR-3 ovarian; U251 CNS; HT29 colon; ACHN renal; MCF7 breast; HCC-2998 colon; T-47D breast; OVCAR-4 ovarian; TK-10 renal; UACC-257 melanoma.
Common to all, as to test: NCI anticancer screen, dose series, 48 h

With `CNc1cc2oc(=O)cc(C)c2cc1C`, the TGI in the assay on OVCAR-3 ovarian, with U251 CNS, with HT29 colon, in the assay on ACHN renal, with MCF7 breast and with HCC-2998 colon was greater than 100 µM each time. Moreover, the TGI with T-47D breast, with OVCAR-4 ovarian, in the assay with TK-10 renal and with UACC-257 melanoma was greater than 100 µM each time.
On to `CSC[C@H](NC(=O)COc1cccc2cnccc12)C(=O)NC(Cc1ccccc1)C(O)C(=O)N1CSC[C@H]1C(=O)NC(C)(C)C` (stereo partly drawn), for which the TGI with OVCAR-3 ovarian is greater than 100 µM; in the assay with U251 CNS it was greater than 100 µM; in the assay on HT29 colon, greater than 100 µM; with ACHN renal it was 84.9 µM; in the assay with MCF7 breast it was greater than 100 µM; in the assay on HCC-2998 colon it was greater than 100 µM. Further, the TGI in the assay on T-47D breast, in the assay on OVCAR-4 ovarian, in the assay on TK-10 renal and in the assay with UACC-257 melanoma was greater than 100 µM throughout.
As to `C=C(CN(C)Cc1ccccc1)c1ccc(NC(=O)c2ccc(C(=C)CN(C)Cc3ccccc3)cc2)cc1`, the GI50 in the assay on OVCAR-3 ovarian was greater than 100 µM; in the assay with U251 CNS it was 20.7 µM; in the assay on HT29 colon it was greater than 100 µM; in the assay on ACHN renal, 66.6 µM; with MCF7 breast, 59.3 µM; in the assay on HCC-2998 colon, 37.2 µM. Besides, the GI50 in the assay with T-47D breast was 20.7 µM; in the assay on OVCAR-4 ovarian it was 17.6 µM; in the assay on TK-10 renal, greater than 100 µM; in the assay with UACC-257 melanoma it was greater than 100 µM. The TGI was greater than 100 µM with OVCAR-3 ovarian; 45.7 µM in the assay on U251 CNS; greater than 100 µM in the assay on HT29 colon; greater than 100 µM in the assay on ACHN renal; greater than 100 µM in the assay on MCF7 breast; greater than 100 µM in the assay with HCC-2998 colon. Besides, the TGI in the assay with T-47D breast was 87.4 µM; with OVCAR-4 ovarian it was 38.6 µM; with TK-10 renal it was greater than 100 µM; with UACC-257 melanoma, greater than 100 µM.
As to `CN(Cc1cnc2nc(N)nc(N)c2n1)c1ccc(C(=O)N[C@@H](CCS(=O)(=O)O)C(=O)O)cc1`, the TGI with OVCAR-3 ovarian, in the assay on U251 CNS, with HT29 colon, in the assay on ACHN renal, with MCF7 breast and in the assay with HCC-2998 colon was greater than 100 µM each time. Besides, the TGI in the assay with T-47D breast, in the assay on OVCAR-4 ovarian, in the assay on TK-10 renal and in the assay on UACC-257 melanoma was greater than 100 µM each time.
With `COc1ccc(Cl)cc1NC(=O)c1ccc(NC2=C(Cl)C(=O)N(Cc3ccccc3)C2=O)cc1`, the GI50 is 36.3 µM in the assay with OVCAR-3 ovarian; 28.3 µM in the assay with U251 CNS; 4.8 µM with HT29 colon; 94.2 µM in the assay on ACHN renal; 5.92 µM with MCF7 breast; 14.1 µM in the assay with HCC-2998 colon. Besides, the GI50 was greater than 100 µM with T-47D breast, greater than 100 µM with OVCAR-4 ovarian, greater than 100 µM with TK-10 renal and 94.1 µM in the assay with UACC-257 melanoma. The TGI in the assay with OVCAR-3 ovarian was greater than 100 µM; in the assay with U251 CNS, greater than 100 µM; in the assay on HT29 colon it was greater than 100 µM; with ACHN renal it was greater than 100 µM; with MCF7 breast, 34.3 µM; in the assay with HCC-2998 colon, 28.8 µM. For the same compound, the TGI with T-47D breast, in the assay on OVCAR-4 ovarian, in the assay with TK-10 renal and in the assay with UACC-257 melanoma was greater than 100 µM throughout.
With `O=C(Nc1nc(-c2c[nH]c3ccccc23)cs1)c1n[nH]c(=O)c2ccccc12`, the GI50 was 13.6 µM in the assay with OVCAR-3 ovarian; 0.663 µM with U251 CNS; 1.19 µM in the assay with HT29 colon; 8.98 µM in the assay with ACHN renal; 2.01 µM in the assay on MCF7 breast; 18.1 µM with HCC-2998 colon. In addition, the GI50 in the assay with T-47D breast is greater than 46.4 µM; in the assay on OVCAR-4 ovarian it was 20.6 µM; with TK-10 renal, 14.4 µM; in the assay with UACC-257 melanoma, 38.4 µM. Moreover, the TGI in the assay with OVCAR-3 ovarian was greater than 83.7 µM; in the assay on U251 CNS, 24 µM; in the assay with HT29 colon, greater than 100 µM; with ACHN renal it was greater than 69.1 µM; in the assay on MCF7 breast it was greater than 100 µM; with HCC-2998 colon, greater than 100 µM. The TGI with T-47D breast is greater than 96.2 µM; with OVCAR-4 ovarian it was greater than 100 µM; in the assay with TK-10 renal, greater than 100 µM; in the assay on UACC-257 melanoma, greater than 100 µM.
As to `COc1cc2c3c(n(C)c(=O)c2cc1OC)-c1cc2c(cc1C3=O)OCO2`, the TGI with OVCAR-3 ovarian is greater than 100 µM; with U251 CNS, greater than 100 µM; in the assay with HT29 colon, greater than 100 µM; in the assay with ACHN renal it was greater than 60.5 µM; in the assay with MCF7 breast it was greater than 100 µM; with HCC-2998 colon it was greater than 100 µM. Further, the TGI with T-47D breast was 57.3 µM; with OVCAR-4 ovarian it was greater than 100 µM; with TK-10 renal it was greater than 100 µM; with UACC-257 melanoma, greater than 100 µM.
On to `COc1cc2c(cc1OCCCN1CCN(CCCOc3cc4c(cc3OC)C(=O)N3CC(F)(F)C[C@H]3C=N4)CC1)N=C[C@@H]1CC(F)(F)CN1C2=O`, for which the GI50 in the assay on OVCAR-3 ovarian was 3.55 µM; in the assay with U251 CNS, 3.36 µM; in the assay with HT29 colon it was 3.61 µM; with ACHN renal it was 5.64 µM; in the assay with MCF7 breast, 2.09 µM; with HCC-2998 colon it was 5.4 µM. Also, the GI50 was 3.25 µM in the assay on T-47D breast, 12.7 µM in the assay on OVCAR-4 ovarian, 4.38 µM with TK-10 renal and 15.3 µM in the assay with UACC-257 melanoma. For the same compound, the TGI is 10.6 µM in the assay with OVCAR-3 ovarian; 14.3 µM in the assay on U251 CNS; greater than 100 µM in the assay on HT29 colon; 19.7 µM in the assay with ACHN renal; 20.2 µM in the assay with MCF7 breast; 19.4 µM in the assay on HCC-2998 colon. In addition, the TGI in the assay on T-47D breast amounted to 36.9 µM; with OVCAR-4 ovarian, 33.7 µM; in the assay with TK-10 renal, 12.9 µM; in the assay with UACC-257 melanoma, 31.6 µM.
For `O=C(Nc1ncc(Cc2cccc(C(F)(F)F)c2)s1)c1ccc2c(c1)OCCO2`, the GI50 with OVCAR-3 ovarian is 0.223 µM; in the assay with U251 CNS, 0.385 µM; in the assay with HT29 colon, 0.498 µM; in the assay on ACHN renal, 0.58 µM; with MCF7 breast it was 0.175 µM; with HCC-2998 colon it was 0.337 µM. Further, the GI50 with T-47D breast was 0.606 µM; with OVCAR-4 ovarian it was 0.608 µM; with TK-10 renal it was 0.892 µM; with UACC-257 melanoma, 5.87 µM. Besides, the TGI in the assay on OVCAR-3 ovarian is 0.629 µM; with U251 CNS, greater than 48.2 µM; in the assay on HT29 colon, greater than 35.2 µM; with ACHN renal it was greater than 100 µM; in the assay with MCF7 breast, greater than 100 µM; in the assay with HCC-2998 colon, 17.5 µM. For the same compound, the TGI was greater than 100 µM with T-47D breast, greater than 100 µM in the assay on OVCAR-4 ovarian, greater than 39.2 µM in the assay on TK-10 renal and greater than 100 µM in the assay with UACC-257 melanoma.
With `COc1ccc(/C=C\c2cc(OC)c(OC)c(OC)c2)cc1OCC(=O)O`, the TGI in the assay with OVCAR-3 ovarian is 8.25 µM; in the assay on U251 CNS, 39.6 µM; in the assay with HT29 colon, greater than 100 µM; in the assay with ACHN renal, greater than 100 µM; with MCF7 breast, greater than 100 µM; with HCC-2998 colon, greater than 100 µM. The TGI is greater than 100 µM in the assay with T-47D breast, greater than 86.1 µM in the assay with OVCAR-4 ovarian, greater than 100 µM in the assay with TK-10 renal and greater than 100 µM with UACC-257 melanoma.
`O=c1[nH]c(-c2cccc(F)c2)cc2cc(F)ccc12`: the GI50 in the assay with OVCAR-3 ovarian is 0.314 µM; in the assay with U251 CNS, 0.47 µM; with HT29 colon it was 0.261 µM; in the assay with ACHN renal, 0.771 µM; in the assay with MCF7 breast, 0.329 µM; in the assay on HCC-2998 colon it was 1.91 µM. The GI50 in the assay with T-47D breast is greater than 100 µM; with OVCAR-4 ovarian, greater than 90.9 µM; in the assay on TK-10 renal it was greater than 50 µM; in the assay with UACC-257 melanoma, greater than 100 µM. Also, the TGI with U251 CNS, in the assay with HT29 colon, in the assay with ACHN renal, in the assay on MCF7 breast, with HCC-2998 colon and with T-47D breast was greater than 100 µM in each case. Further, the TGI with OVCAR-4 ovarian, with TK-10 renal and with UACC-257 melanoma was greater than 100 µM throughout.
Regarding `COC(=O)c1c2c(c(C)[n+]([O-])c1C)C(=O)C(NCc1ccc(Br)cc1)=CC2=O`, the GI50 with OVCAR-3 ovarian is 0.301 µM; with U251 CNS, 2.14 µM; with MCF7 breast, 1.33 µM; in the assay with HCC-2998 colon it was 1.88 µM; in the assay on T-47D breast, 1.52 µM; in the assay on OVCAR-4 ovarian, 0.704 µM. Further, the TGI in the assay with OVCAR-3 ovarian was 0.957 µM; in the assay on U251 CNS, 6.01 µM; in the assay on MCF7 breast, 3.21 µM; in the assay on HCC-2998 colon, 4.83 µM; in the assay on T-47D breast it was 4.06 µM; in the assay on OVCAR-4 ovarian it was 2 µM.
Consider `COc1c(C)c(OCC=C(C)C)cc(CO)c1CO`, for which the TGI in the assay with U251 CNS, in the assay on HT29 colon, in the assay with ACHN renal, in the assay with MCF7 breast, in the assay with HCC-2998 colon and in the assay with T-47D breast was greater than 100 µM throughout. Besides, the TGI in the assay on OVCAR-4 ovarian, with TK-10 renal and in the assay with UACC-257 melanoma was greater than 100 µM in each case.
For `Cc1nc2c(Br)cc(Br)cc2c(=O)n1-c1nnc(-c2cccc(Cl)c2Cl)c(N)n1`, the GI50 in the assay on OVCAR-3 ovarian is 18.6 µM; in the assay with U251 CNS it was 21.7 µM; with HT29 colon, 30.3 µM; with ACHN renal it was 19.5 µM; in the assay on MCF7 breast, 26.7 µM; in the assay on HCC-2998 colon, 17.6 µM. For the same compound, the values for the GI50 in the assay on T-47D breast, in the assay with OVCAR-4 ovarian and in the assay with UACC-257 melanoma were 55.2 µM, 84.5 µM and 24.5 µM, respectively. The TGI in the assay with OVCAR-3 ovarian was 60.4 µM; in the assay on U251 CNS, 72.5 µM; with HT29 colon, greater than 100 µM; in the assay with ACHN renal it was 56.1 µM; in the assay with MCF7 breast, greater than 100 µM; in the assay on HCC-2998 colon it was 41.3 µM. Moreover, the TGI in the assay with T-47D breast was greater than 100 µM; in the assay on OVCAR-4 ovarian, greater than 100 µM; in the assay with UACC-257 melanoma, 65.1 µM.
